Experimental data reported in US20070202141A1, “Synthetic Aggregation Pheromone For Manipulating The Behaviour Of Codling Moth, Cydia Pomonella, Larvae” (PHERO TECH INC., priority 2004, published 2007).

Tested on: female Mastrus ridibundus antenna
Test: coupled gas chromatographic-electroantennographic detection (GC-EAD)
Details: Porapak Q extract of cocoon-spinning larvae; FIG. 2
Description: Aliquots of 20 CSLHE of Porapak Q-captured volatiles were subjected to analysis by coupled gas chromatographic-electroantennographic detection (GC-EAD) (Arm et al. 1975) using an antenna of Mastrus ridibundus, a specialist parasitic wasp of C. pomonella prepupae, as the electroantennographic detector. Using antennae from female M. ridibundus, instead of C. pomonella larvae, in these analyses was necessary because the antennae of C. pomonella larvae are too small for electrophysiolocial studies. It was also justified because host-seeking female M. ridibundus respond to the pheromone produced by cocoon-spinning C. pomonella larvae. In these GC-EAD analyses, 10 components (8 visible in FIG. 2) elicited responses from M. ridibundus antennae.
FIG. 2 illustrates flame ionization detector (FID) and electroantennographic detector (EAD: female Mastrus ridibundus antenna) responses to 10 CSLHE of Porapak Q extract. Chromatography: Hewlett Packard (HP) 5890A gas chromatograph equipped with a fused silica column (30 m×0.32 mm ID) coated with DB-23 (J & W Scientific, Folsom, Calif. 95630, USA); linear flow velocity of carrier gas: 35 cm/sec; injector and FID detector temperature: 240° C.; temperature program: 1 min at 50° C., 10° C./min to 220° C. […]

## C=C(C)C1CC=C(C)CC1 (single isomer, unassigned; (+)) [(+)-limonene]
  electroantennographic detector (EAD) response: not antenally active
